# Data reported in patent publication US20210205271A1 (The Johns Hopkins University, priority 2018, published 2021).
# Several values for one entry are separate records, joined by “and”; a condition that tells them apart may be missing. Identical values can stand only once.
# Columns and labels:
# [1] = In vitro stability in mouse plasma; type: in vitro ADME; conditions: for In vitro stability in mouse (% remaining at 60 min) Plasma: 10 μM, 37° C.
# Description: (§1) In addition to solubility, all prodrugs were screened for in vitro metabolic stability in mouse jejunum homogenate, liver microsomes and plasma (see Table 3) to characterize their bioconversion to MBZ. The screening paradigm was designed to confirm activation of prodrugs to MBZ following oral administration in these highly metabolic sites. Initial screening was done in mouse jejunum homogenate by incubating the compounds for 60 min. […] Following jejunum stability, the prodrugs were screened in mouse liver microsomes.
# (§2) In vitro stability studies were done using mouse jejunum homogenate, mouse liver microsomes or naïve mouse plasma. For mouse jejunum homogenate stability study, washed mouse jejunum was diluted 10-fold in 0.1 M potassium phosphate buffer, and homogenized using probe sonication. Crude homogenate was then aliquoted to 1 mL and the homogenate was spiked with 10 μM of compound. Liver microsome stability assay was performed in 100 mM potassium phosphate buffer, pH 7.4, and reactions were initiated by addition of the liver microsomes to the incubation mixture (compound final concentration was 10 μM; 0.5 mg/mL microsomes). The plasma stability of the prodrugs was determined by spiking (10 μM) of prodrugs in 1 mL of plasma and incubating in an orbital shaker at 37° C. All the stability studies were conducted at predetermined times (0 and 60 min), where 100 μL aliquots of the mixture in triplicate were removed and the reaction was quenched by addition of three times the volume of ice cold acetonitrile spiked with the internal standard (losartan: 0.5 μM). The samples were vortex mixed for 30 sec and centrifuged at 10000×g for 10 min at 4° C. Fifty microliter of the supernatant was diluted with 50 μL water and transferred to a 2504 polypropylene vial sealed with a Teflon cap. Prodrug disappearance was monitored over time using liquid chromatography and tandem mass spectrometry (LC-MS/MS).
# (§3) Briefly, prodrugs were analyzed on a Thermo Scientific Accela UPLC system coupled to Accela open autosampler at ambient temperature with an Agilent Eclipse Plus column (100×2.1 mm i.d.) packed with a 1.8 μm C18 stationary phase. The autosampler was temperature controlled and operated at 10° C. The mobile phase used for the chromatographic separation was composed of acetonitrile/water containing 0.1% formic acid and with a flow rate of 0.4 mL/min for 4.5 min using gradient elution. The column effluent was monitored using TSQ Vantage triple-quadrupole mass-spectrometric detector, equipped with an electrospray probe set in the positive ionization mode. Samples were introduced into the ionization source through a heated nebulized probe (350° C.). Disappearance of prodrugs was measured from ratio of peak areas of analyte to IS.
# [2] = In vitro stability in mouse jejunum (intestinal) homogenate; type: in vitro ADME; conditions: for In vitro stability in mouse (% remaining at 60 min) Intestinal homogenate: 10 μM
# Description: as §1, §2, §3
# [3] = In vitro stability in mouse liver microsomes; type: in vitro ADME; conditions: for In vitro stability in mouse (% remaining at 60 min) Liver microsomes: 10 μM, 0.5 mg/mL microsomes
# Description: as §1, §2, §3
# [4] = Chemical stability in PBS at 37° C. (LC-MS); type: physicochemical; conditions: for chemical stability: aqueous environment / PBS
# Description: Prodrugs were also tested for chemical stability in 0.01 M PBS for 60 min at 37° C. by monitoring intact prodrug using LC-MS. […] Thus prodrug 14 was not assessed in assays due to its significant instability in PBS at pH 7.4.
# Prodrug chemical stability was measured by the addition of 1 μL, of 10 mM DMSO stock solution to 1 mL of preheated (37° C.) […], resulting in a final concentration of 10 μM. The mixture was vortex mixed for 30 sec, and then incubated at 37° C. At specified time points 100 μL of the mixture was removed and extracted with 300 μL of cold acetonitrile (0° C.) with internal standard. This mixture was further diluted with 400 μL of water and the resulting solution was analyzed by LC-MS.
# [5] = physchem; conditions: for solubility at 24 h: 37 °C, thermodynamic from solid; for fold improvement in solubility over MBZ-C: 24 h, pH 7.4
# Description: The aqueous solubility was determined as previously reported using the shake-flask procedure published by Zhou, et al., 2007. The compound was added to PBS buffer (0.01 M) and shaken for 24 h at 37° C. to ensure saturation. After 24 h, the solution was centrifuged (10,000 rpm, 2 min, RT) filtered (0.45 μm PTFE) and the filtrate was diluted appropriately (i.e. neat, 1/10, 1/100, 1/1000) and the concentration of compound was determined using LC/MS.
# [6] = male, CD-1, mouse, in vivo, 30 mg/kg
# Description: (§4) All pharmacokinetic studies in mice were conducted according to protocols approved by the Animal Care and Use Committee at Johns Hopkins University. Male CD-1 mice between 25 and 30 g were obtained from Harlan, and maintained on a 12-h light-dark cycle with ad libitum access to food and water. […] The mice were sacrificed at specified time points post drug administration. For collection of plasma and brain tissue, animals were euthanized with CO2, and blood samples were collected in heparinized microtubes by cardiac puncture. Tissues were dissected and immediately flash frozen (−80° C.). Blood samples were spun at 2,000×g for 15 min, plasma was removed and stored at −80° C. until LC/MS analysis. Prior to extraction, frozen samples were thawed on ice. The calibration curves were developed using plasma and brain from naïve animals as a matrix. Plasma samples (50 μL), were processed using a single liquid extraction method by addition of 3004 of acetonitrile as with internal standard (losartan: 0.5 μM), followed by vortex mixing for 30 sec and then centrifugation at 10,000×g for 10 min at 4° C. For brain tissue, homogenized samples were vortex mixed and centrifuged as above. A 104 aliquot of supernatant was diluted with 35 µL of acetonitrile and mixed with 50 μL water containing 0.5 μM losartan as internal standard. Extracts were centrifuged at 10,000×g for 10 min at 4° C. Supernatants were transferred to 2504 polypropylene autosampler vials sealed with a Teflon cap. A volume of 34 was injected onto the ultra-performance liquid chromatography (UPLC) instrument for quantitative analysis by LC-MS/MS.
# The a priori level of significance for all analyses was defined asp <0.05.
# [7] = in vivo, po
# Description: Brain concentrations of MBZ were also measured in tandem.
# as §4
# [8] = cited from earlier work
In vitro stability in mouse (% remaining at 60 min) Plasma [1],In vitro stability in mouse (% remaining at 60 min) Intestinal homogenate [2],In vitro stability in mouse (% remaining at 60 min) Liver microsomes [3],fold improvement in solubility over MBZ-C [5],Structure (SMILES),also measured
4 ± 0%,37 ± 2%,–,–,"COC(=O)Nc1nc2cc(C(=O)c3ccccc3)ccc2n1COC(=O)C(C)(C)C [Compound 1, (5-Benzoyl-2-((methoxycarbonyl)amino)-1H-benzo[d]imidazol-1-yl)methyl pivalate]",–
62 ± 1%,35 ± 4%,100 ± 2%,–,"COC(=O)Nc1nc2cc(C(=O)c3ccccc3)ccc2n1COP(=O)(O)O [Compound 11, Methyl (5-benzoyl-1-((phosphonooxy)methyl)-1H-benzo[d]imidazol-2-yl)carbamate]",stability in liver microsomes ([3]; 60 min incubation): stable; MBZ plasma concentration at 1 h post oral administration [6]: 8.53 ± 2.33 nmol/mL
85%,60%,–,–,"COC(=O)Nc1nc2cc(C(=O)c3ccccc3)ccc2n1C(C)OC(=O)C(C)(C)C (centres unmarked) [Compound 15, 1-(5-benzoyl-2-((methoxycarbonyl)amino)-1H-benzo[d]imidazol-1-yl)ethyl pivalate]",–
–,100%,–,–,"COC(=O)Nc1nc2cc(C(=O)c3ccccc3)ccc2n1C(OC(=O)C(C)(C)C)C(C)C (centres unmarked) [Compound 16, 1-(5-benzoyl-2-((methoxycarbonyl)amino)-1H-benzo[d]imidazol-1-yl)-2-methylpropyl pivalate]",–

# More lines, now with the values behind:
Structure (SMILES),In vitro stability in mouse (% remaining at 60 min) Plasma [1],In vitro stability in mouse (% remaining at 60 min) Intestinal homogenate [2],In vitro stability in mouse (% remaining at 60 min) Liver microsomes [3],fold improvement in solubility over MBZ-C [5],also measured
"COC(=O)Nc1nc2cc(C(=O)c3ccccc3)ccc2n1COC(=O)CNC(=O)[C@H](CC(C)C)NC(C)=O [Compound 7, (5-Benzoyl-2-((methoxycarbonyl)amino)-1H-benzo[d]imidazol-1-yl)methyl acetyl-L-leucylglycinate]",0 ± 0%,18 ± 1%,29 ± 1%,greater than 200 fold,"chemical stability [4]: sufficiently stable; solubility at 24 h ([5]; pH 7.4, aqueous buffer): 85.5 µg/mL; MBZ plasma concentration at 1 h post oral administration [6]: 8.72 ± 0.63 nmol/mL"
"COC(=O)Nc1nc2cc(C(=O)c3ccccc3)ccc2n1COC(=O)CCC(=O)O [Compound 8, 4-((5-Benzoyl-2-((methoxycarbonyl)amino)-1H-benzo[d]imidazol-1-yl)methoxy)-4-oxobutanoic acid]",78 ± 1%,30 ± 2%,24 ± 0%,greater than 200 fold,"solubility at 24 h ([5]; pH 7.4, aqueous buffer): 386 µg/mL"
"COC(=O)Nc1nc2cc(C(=O)c3ccccc3)ccc2n1COC(=O)OC[C@H]1OC(O)[C@H](O)[C@@H](O)[C@@H]1O (stereo partly drawn) [Compound 9, Methyl (5-benzoyl-1-((((((2R,3S,4S,5R)-3,4,5,6-tetrahydroxytetrahydro-2H-pyran-2-yl)methoxy)carbonyl)oxy)methyl)-1H-benzo[d]imidazol-2-yl)carbamate]",18 ± 0%,4 ± 0%,27 ± 0%,greater than 200 fold,"metabolized in mouse plasma ([1]; 60 min incubation): 82%; solubility at 24 h ([5]; pH 7.4, aqueous buffer): 220 µg/mL"
"COC(=O)Nc1nc2cc(C(=O)c3ccccc3)ccc2n1COP(=O)([O-])OCOC(=O)OC(C)C.[Na+] [Compound 12, Methyl (5-benzoyl-1-(((hydroxy(((isopropoxycarbonyl)oxy)methoxy)phosphoryl)oxy)methyl)-1H-benzo[d]imidazol-2-yl)carbamate, sodium salt]",73 ± 3%,1 ± 0%,14 ± 0%,"> 10,000 fold","AUC0-t (MBZ, plasma) ([7]; male, CD-1, mouse, 30 mg/kg): 27.9 µM·h; brain AUC0-t ([7]; male, CD-1, mouse, 30 mg/kg): 21.9 µM·h; fold enhanced plasma AUC0-t compared to MBZ-C ([7]; male, CD-1, mouse, 30 mg/kg): 2.2 fold; fold increase in brain AUC0-t over MBZ-C ([7]; male, CD-1, mouse, 30 mg/kg): 1.7 fold; intact prodrug in brain samples ([7]; mouse): no intact prodrug was detected; intact prodrug in plasma samples ([7]; mouse): no intact prodrug was detected; AUC0-t (MBZ, brain) ([7]; mouse, 30 mg/kg): 21.9 ± 2.0 nmol·h/g; stability in intestinal tissue homogenate [2]: unstable; MBZ plasma concentration at 1 h post oral administration [6]: 10.35 ± 2.57 nmol/mL; fold improvement in plasma MBZ over MBZ-C ([6]; po, 1 h): 3.6 fold"
"COC(=O)Nc1nc2cc(C(=O)c3ccccc3)ccc2n1COC(=O)CC[C@H](N)C(=O)O [Compound 14, (S)-2-Amino-5-((5-benzoyl-2-((methoxycarbonyl)amino)-1H-benzo[d]imidazol-1-yl)methoxy)-5-oxopentanoic acid]",–,–,–,–,"chemical stability, % remaining at 60 min ([4]; 0.01 M PBS, 37° C., 60 min): 0%; chemical stability [4]: too unstable; solubility at 24 h ([5]; pH 7.4, water): 451 µg/mL"
"COC(=O)Nc1nc2cc(C(=O)c3ccccc3)ccc2n1COP(=O)([O-])OC(C)OC(=O)OC(C)C.[Na+] (centres unmarked) [Compound 17, Methyl (5-benzoyl-1-(((hydroxy(((isopropoxycarbonyl)oxy)ethoxy)phosphoryl)oxy)methyl)-111-benzo[d]imidazol-2-yl)carbamate, sodium salt]",89%,46%,82%,–,–
"COC(=O)Nc1nc2ccc(C(=O)c3ccccc3)cc2[nH]1 [MBZ, Mebendazole]",–,–,–,–,"oral bioavailability ([8]; pilot human study, one subject, intravenous and oral [3H]-mebendazole): 17%; bioavailability ([8]; second human study, five subjects): 22% and 12-35%"
